From patent US20250230193A1, “CYCLIC COMPOUND HAVING SELECTIVE KRAS INHIBITORY EFFECT ON HRAS AND NRAS” (CHUGAI SEIYAKU KABUSHIKI KAISHA, priority 2022, published 2025)

Tests used:
[1] = target: GDP-bound HRAS wild-type protein (Homo sapiens, UniProt P01112); test: Binding to HRAS by surface plasmon resonance (SPR), Single Cycle Kinetics; conditions: SPR; for HRAS/KRAS (ratio of KD value for GDP-bound HRAS wild-type protein to KD value for KRAS): KD ratio class; for HRAS/KRAS (ratio of KD value for HRAS to KD value for KRAS): GDP-bound HRAS wild-type vs GDP-bound KRAS wild-type
Chain of GDP-bound HRAS wild-type protein (P01112 whole entry): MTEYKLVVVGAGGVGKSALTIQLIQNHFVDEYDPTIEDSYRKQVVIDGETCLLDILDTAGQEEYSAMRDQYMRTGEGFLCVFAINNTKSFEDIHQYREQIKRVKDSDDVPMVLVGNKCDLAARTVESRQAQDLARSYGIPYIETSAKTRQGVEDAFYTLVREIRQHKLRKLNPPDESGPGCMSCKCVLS

[2] = target: GDP-bound NRAS wild-type protein (Homo sapiens, UniProt P01111); test: Binding to NRAS by surface plasmon resonance (SPR), Single Cycle Kinetics; conditions: SPR; for NRAS/KRAS (ratio of KD value for GDP-bound NRAS wild-type protein to KD value for KRAS): KD ratio class; for NRAS/KRAS (ratio of KD value for NRAS to KD value for KRAS): GDP-bound NRAS wild-type vs GDP-bound KRAS wild-type
Chain of GDP-bound NRAS wild-type protein (P01111 whole entry): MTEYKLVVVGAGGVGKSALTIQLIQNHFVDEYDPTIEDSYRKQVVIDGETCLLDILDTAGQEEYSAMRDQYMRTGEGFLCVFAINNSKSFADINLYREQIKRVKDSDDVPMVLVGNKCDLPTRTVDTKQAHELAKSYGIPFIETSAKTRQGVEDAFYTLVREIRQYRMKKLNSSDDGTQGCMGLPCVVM

| SMILES | HRAS/KRAS (ratio of KD value for GDP-bound HRAS wild-type protein to KD value for KRAS) [1] | NRAS/KRAS (ratio of KD value for GDP-bound NRAS wild-type protein to KD value for KRAS) [2] | HRAS/KRAS (ratio of KD value for HRAS to KD value for KRAS) [1] | NRAS/KRAS (ratio of KD value for NRAS to KD value for KRAS) [2] |
| --- | --- | --- | --- | --- |
| CC[C@H](C)[C@@H]1NC(=O)[C@H](CC2CC2)N(C)C(=O)C[C@@H](C(=O)N(C)CC)N(C)C(=O)[C@H](C2CCCC2)N(C)C(=O)C2(CCC2)NC(=O)[C@@H]2C[C@H](C)CN2C(=O)[C@H](CCc2cc(F)c(C(F)(F)F)c(F)c2)NC(=O)CN(C)C(=O)[C@H](Cc2ccc(C(F)(F)F)cc2)N2CC/C=C\C[C@@H](C2=O)N(C)C(=O)CN(C)C1=O [PP1537] | A (a compound having 10 or more and less than 20 is denoted as A) | AA (a compound having 20 or more is denoted as AA) |  |  |
| CC[C@H](C)[C@@H]1NC(=O)[C@H](CC2CC2)N(C)C(=O)C[C@@H](C(=O)N(C)CC)N(C)C(=O)[C@H](C2CCCC2)N(C)C(=O)C2(CCC2)NC(=O)[C@@H]2CC(F)(F)CN2C(=O)[C@H](CCc2cc(F)c(C(F)(F)F)c(F)c2)NC(=O)CN(C)C(=O)[C@H](Cc2ccc(C(F)(F)F)cc2)N2CC/C=C\C[C@@H](C2=O)N(C)C(=O)CN(C)C1=O [PP1538] | B (a compound having 3 or more and less than 10 is denoted as B) | A (a compound having 10 or more and less than 20 is denoted as A) |  |  |
| CCO[C@@H]1C[C@H]2C(=O)NC3(CCC3)C(=O)N(C)[C@@H](C3CCCC3)C(=O)N(C)[C@H](C(=O)N(C)CC)CC(=O)N(C)[C@@H](CC)C(=O)N[C@@H]([C@@H](C)CC)C(=O)N(C)CC(=O)N(C)[C@H]3C/C=C\CCN(C3=O)[C@@H](CC3CCCCC3)C(=O)N(C)CC(=O)N[C@@H](CCc3cc(F)c(C(F)(F)F)c(F)c3)C(=O)N2C1 [PP1552] | A (a compound having 10 or more and less than 20 is denoted as A) | A (a compound having 10 or more and less than 20 is denoted as A) |  |  |
| CCO[C@@H]1C[C@H]2C(=O)NC3(CCC3)C(=O)N(C)[C@@H](C3CCCC3)C(=O)N(C)[C@H](C(=O)N(C)CC)CC(=O)N(C)[C@@H](CC)C(=O)N[C@@H]([C@@H](C)CC)C(=O)N(C)CC(=O)N(C)[C@H]3C/C=C\CCN(C3=O)[C@@H](CC3CCC(F)(F)CC3)C(=O)N(C)CC(=O)N[C@@H](CCc3cc(F)c(C(F)(F)F)c(F)c3)C(=O)N2C1 [PP1553] | A (a compound having 10 or more and less than 20 is denoted as A) | A (a compound having 10 or more and less than 20 is denoted as A) |  |  |
| C=CCCCCN(C)C(=O)[C@@H]1CC(=O)N(C)[C@@H](CC2CC2)C(=O)N[C@@H](CC=C)C(=O)N(C)CC(=O)N(C)[C@H]2C/C=C\CCN(C2=O)[C@@H](Cc2ccc(C(F)(F)F)cc2)C(=O)N(C)CC(=O)N[C@@H](CCc2cc(F)c(C(F)(F)F)c(F)c2)C(=O)N2C[C@H](OCC)C[C@H]2C(=O)NC2(CCC2)C(=O)N(C)[C@@H](C2CCCC2)C(=O)N1C [PP1554] | A (a compound having 10 or more and less than 20 is denoted as A) | A (a compound having 10 or more and less than 20 is denoted as A) |  |  |
| C=CC[C@@H]1NC(=O)[C@H](CC2CC2)N(C)C(=O)C[C@@H](C(=O)N(C)CC=C)N(C)C(=O)[C@H](C2CCCC2)N(C)C(=O)C2(CCC2)NC(=O)[C@@H]2C[C@@H](OCC)CN2C(=O)[C@H](CCc2cc(F)c(C(F)(F)F)c(F)c2)NC(=O)CN(C)C(=O)[C@H](Cc2ccc(C(F)(F)F)cc2)N2CC/C=C\C[C@@H](C2=O)N(C)C(=O)CN(C)C1=O [PP1557] | A (a compound having 10 or more and less than 20 is denoted as A) | A (a compound having 10 or more and less than 20 is denoted as A) |  |  |
| CCO[C@@H]1C[C@H]2C(=O)NC3(CCCC3)C(=O)N(C)[C@@H](C3CCCC3)C(=O)N(C)[C@H](C(=O)N(C)CC)CC(=O)N(C)[C@@H](CC(C)C)C(=O)N[C@@H]([C@@H](C)CC)C(=O)N(C)CC(=O)N(C)[C@H]3C/C=C\CCN(C3=O)[C@@H](Cc3ccc(C(F)(F)F)cc3)C(=O)N(C)CC(=O)N[C@@H](CCc3cc(F)c(C(F)(F)F)c(F)c3)C(=O)N2C1 [PP1574, (2S,8S,12R,14S,20S,23S,27S,30S,36S,38Z)-20-cyclopentyl-8-[2-[3,5-difluoro-4-(trifluoromethyl)phenyl]ethyl]-12-ethoxy-N-ethyl-27-isobutyl-N,4,19,22,26,32,35-heptamethyl-30-[(1S)-1-methylpropyl]-3,6,9,15,18,21,25,28,31,34,42-undecaoxo-2-[[4-(trifluoromethyl)phenyl]methyl]spiro[1,4,7,10,16,19,22,26,29,32,35-undecazatricyclo[34.5.1.0^10,14]dotetracont-38-ene-17,1′-cyclopentane]-23-carboxamide] | A (a compound having 10 or more and less than 20 is denoted as A) | A (a compound having 10 or more and less than 20 is denoted as A) |  |  |
| CCO[C@@H]1C[C@H]2C(=O)NC3(CC(F)(F)C3)C(=O)N(C)[C@@H](C(CC)CC)C(=O)N3CCC[C@@H]3CC(=O)N(C)[C@@H](CC)C(=O)N[C@@H]([C@@H](C)CC)C(=O)N(C)CC(=O)N(C)[C@H]3C/C=C\CCN(C3=O)[C@@H](Cc3ccc(C(F)(F)F)cc3)C(=O)N(C)CC(=O)N[C@@H](CCc3cc(F)c(C(F)(F)F)c(F)c3)C(=O)N2C1 [PP1608] |  |  | A (a compound having 10 or more and less than 20 is denoted as A) | A (a compound having 10 or more and less than 20 is denoted as A) |
| CCO[C@@H]1C[C@H]2C(=O)NC3(CC(F)(F)C3)C(=O)N(C)[C@@H](C3CCCC3)C(=O)N3CCC[C@@H]3CC(=O)N(C)[C@@H](CC)C(=O)N[C@@H]([C@@H](C)CC)C(=O)N(C)CC(=O)N(C)[C@H]3C/C=C\CCN(C3=O)[C@@H](Cc3ccc(C(F)(F)F)cc3)C(=O)N(C)CC(=O)N[C@@H](CCc3cc(F)c(C(F)(F)F)c(F)c3)C(=O)N2C1 [PP1609] |  |  | A (a compound having 10 or more and less than 20 is denoted as A) | A (a compound having 10 or more and less than 20 is denoted as A) |
| CCO[C@@H]1C[C@H]2C(=O)NC3(CC(C)(C)C3)C(=O)N(C)[C@@H](C(CC)CC)C(=O)N3CCC[C@@H]3CC(=O)N(C)[C@@H](CC3CC3)C(=O)N[C@@H]([C@@H](C)CC)C(=O)N(C)CC(=O)N(C)[C@H]3C/C=C\CCN(C3=O)[C@@H](Cc3ccc(C(F)(F)F)cc3)C(=O)N(C)CC(=O)N[C@@H](CCc3cc(F)c(C(F)(F)F)c(F)c3)C(=O)N2C1 [PP1610] |  |  | A (a compound having 10 or more and less than 20 is denoted as A) | A (a compound having 10 or more and less than 20 is denoted as A) |
| CCO[C@@H]1C[C@H]2C(=O)NC3(CC(C)(C)C3)C(=O)N(C)[C@@H](C3CCCC3)C(=O)N3CCC[C@@H]3CC(=O)N(C)[C@@H](CC3CC3)C(=O)N[C@@H]([C@@H](C)CC)C(=O)N(C)CC(=O)N(C)[C@H]3C/C=C\CCN(C3=O)[C@@H](Cc3ccc(C(F)(F)F)cc3)C(=O)N(C)CC(=O)N[C@@H](CCc3cc(F)c(C(F)(F)F)c(F)c3)C(=O)N2C1 [PP1611] |  |  | B (a compound having 3 or more and less than 10 is denoted as B) | B (a compound having 3 or more and less than 10 is denoted as B) |
| CCO[C@@H]1C[C@H]2C(=O)NC3(CCC3)C(=O)N(C)[C@@H](C(CC)CC)C(=O)N3CCC[C@@H]3CC(=O)N(C)[C@@H](CC3CC3)C(=O)N[C@@H]([C@@H](C)CC)C(=O)N(C)CC(=O)N(C)[C@H]3C/C=C\CCN(C3=O)[C@@H](Cc3ccc(C(F)(F)F)cc3)C(=O)N(C)CC(=O)N[C@@H](CCc3cc(F)c(C(F)(F)F)c(F)c3)C(=O)N2C1 [PP1612] |  |  | B (a compound having 3 or more and less than 10 is denoted as B) | B (a compound having 3 or more and less than 10 is denoted as B) |
| CCO[C@@H]1C[C@H]2C(=O)NC3(CCC3)C(=O)N(C)[C@@H](C3CCCC3)C(=O)N3CCC[C@@H]3CC(=O)N(C)[C@@H](CC3CC3)C(=O)N[C@@H]([C@@H](C)CC)C(=O)N(C)CC(=O)N(C)[C@H]3C/C=C\CCN(C3=O)[C@@H](Cc3ccc(C(F)(F)F)cc3)C(=O)N(C)CC(=O)N[C@@H](CCc3cc(F)c(C(F)(F)F)c(F)c3)C(=O)N2C1 [PP1613] |  |  | B (a compound having 3 or more and less than 10 is denoted as B) | B (a compound having 3 or more and less than 10 is denoted as B) |
| CCO[C@@H]1C[C@H]2C(=O)NC3(CC(F)(F)C3)C(=O)N(C)[C@@H](C(CC)CC)C(=O)N3CCC[C@@H]3CC(=O)N(C)[C@@H](CC3CC3)C(=O)N[C@@H]([C@@H](C)CC)C(=O)N(C)CC(=O)N(C)[C@H]3C/C=C\CCN(C3=O)[C@@H](Cc3ccc(C(F)(F)F)cc3)C(=O)N(C)CC(=O)N[C@@H](CCc3cc(F)c(C(F)(F)F)c(F)c3)C(=O)N2C1 [PP1614] |  |  | A (a compound having 10 or more and less than 20 is denoted as A) | A (a compound having 10 or more and less than 20 is denoted as A) |
| CCO[C@@H]1C[C@H]2C(=O)NC3(CC(F)(F)C3)C(=O)N(C)[C@@H](C3CCCC3)C(=O)N3CCC[C@@H]3CC(=O)N(C)[C@@H](CC3CC3)C(=O)N[C@@H]([C@@H](C)CC)C(=O)N(C)CC(=O)N(C)[C@H]3C/C=C\CCN(C3=O)[C@@H](Cc3ccc(C(F)(F)F)cc3)C(=O)N(C)CC(=O)N[C@@H](CCc3cc(F)c(C(F)(F)F)c(F)c3)C(=O)N2C1 [PP1615] |  |  | B (a compound having 3 or more and less than 10 is denoted as B) | B (a compound having 3 or more and less than 10 is denoted as B) |
